In patent US7030087B2, “Synthetic approach to designed chemical structures” (priority 1996, dated 2006):

Assays:
[1] = tested on: endotoxin from E. coli 055:B5; assay: Limulus amoebocyte lysate assay (E-TOXATE), endotoxin neutralization; format: biochemical; details: for Endotoxin Neutralization, % neutralization: 5.0 × 10^−6 M Peptide; for Endotoxin Neutralization, % neutralization / Endotoxin Neutralization, % at the effective dose / Endotoxin Neutralization, Ed, Effective M dose: Table 4; for Endotoxin Neutralization, % at the effective dose: at the Ed
Experimental: The peptides were tested for their ability to neutralize endotoxin. Quantitative endotoxin activities for these peptides were measured by Limulus amoebocyte lysate assay.
Limulus amoebocyte lysate assay: The ability of synthetic peptides to neutralize endotoxin was detected with the E-TOXATE kit manufactured by Sigma Chemicals (St. Louis, Mo.). […] Peptide or B/PI was incubated with LPS at room temperature for 5 min in 100 ul of a 1:2 dilution of pyrogen-free saline (pH 6.4). The reaction was started by addition of 100 ul of amoebocyte lysate and the final volume was 200 ul. Assuming a 10,000 molecular weight for LPS, the approximate molar ration of B/PI:LPS at neutralization was 3000 to 1.
The peptides were tested according to the method provided above. […] BG38L was used as a positive control in these experiments.

EC (endothelial cells) = assay: EC proliferation, 3[H]thymidine incorporation assay; format: cell-based
Experimental: (§1) Since the in vivo situation of tumor associated EC involves the low expression or even absence of ICAM-1, the next set of experiments aimed to study the ability to reinduce ICAM-I expression after bFBF preincubation. […] In these experiments, HUVEC were pretreated for 3 days with bFGF, subsequently PF4 was added for 3 days and, where indicated in the last 16 hours of culture 4 ng/ml TNFα was added. Human umbilical vein derived endothelial cells (HUVEC) were harvested from normal human umbilical cords by perfusion with 0.125% trypsin/EDTA as described previously. Cells were cultured in fibronectin (FN) coated tissue culture flasks in culture medium (RPMI-1640 with 20% human serum (HS), supplemented with 2 mM glutamine and 100 U/ml penicillin and 0.1 mg/ml streptomycin). Immunofluorescence using indirect PE-conjugated reagents required three separate incubations. 1×10^5 EC were fixed for 1 hour in 1% paraformaldehyde, resuspended in 20 μl appropriately diluted Mab and incubated for 1 hour on ice. Subsequently, cells were washed two times in PBS/BSA (0.1%) and incubated for another 30 minutes with biotinylated rabbit-anti-mouse Ig (Dako, Glostrup, Denmark). After another 2 washings, cells were incubated with streptavidin-phycoerythrin conjugate (Dako). Stained cells were analyzed on a FACScan flowcytometer. Data analysis was performed using PCLysys software (Becton Dickinson, Mountain View, Calif.). Statistical significance of observed differences was determined using the Student's t-test.
EC proliferation was measured using a ^3[H]thymidine incorporation assay. EC were seeded in flatbottomed 96-well tissue culture plates (5000 cells/well) and grown for 3 days, in culture medium. In some cultures the proliferation of EC was enhanced by incubation with 10 ng/ml bFGF. During the list 6 hours of the assay, the culture was pulsed with 0.5 μCi [methyl-^3H]thymidine/well. Results are expressed as the arithmetic mean counts per minute (cpm) of triplicate cultures.

ICAM-1 = ICAM-1 expression on endothelial cells (immunofluorescence, FACScan); format: cell-based, human; details: 10 ng/ml bFGF for 3 days, 100 μg/ml added simultaneously
Experimental: In a first series of experiments, PF4 and βpep peptides were tested for their ability to prevent bFGF (fibroblast growth factor) mediated downregulation of ICAM-1. […] Simultaneously 100 μg/ml of each PF4, βpep-14, βpep-16, or medium was added. Mean ICAM-1 fluorescence intensity values were determined.
as §1
The energy of EC to stimulation with inflammatory cytokines was the subject of a next series of experiments. For these experiments, HUVEC (human vascular endothelial cells) were pretreated with 10 ng/ml bFGF for 3 days. Subsequently, cells are subcultured for 3 days with […] in the presence of PF4. For the last 16 hours of the culture 4 ng/ml TNFα was added to induce upregulation of ICAM-1. […] The regulation of ICAM-1 at the protein level was confirmed in Northern blot analysis for detection of ICAM-1 message. In these experiments, HUVEC were cultured for 3 days with bFGF and treated for the last 4 and 24 hours with PF4 (100 μg/ml). TNFα was added 2 hours before isolation of RNA. RNA from a subconfluent EC cultures (75 cm^2 Petri-dishes) incubated with bFGF for different time-points was isolated using an RNA-zol kit (Campro Scientific, Houston, Tex.). Total RNA (10 μg) for each sample was separated in a 0.8% formaldehyde-denaturing gel, transferred to nitrocellulose (Hybond N+, Amersham International, Amersham, UK) and hybridized to a ^32P-labelled 1.9 Kb c-DNA probe, containing the functional sequence of the human ICAM-1 gene (a gift from Dr. B. Seed). Membranes were washed at a high stringency in 0.2×SSC, 0.1% SDS at 50° C. for 1 hour. Filters were exposed to X-ray films (Kodak X-omat, Eastman Kodak Company, Rochester, N.Y.) using an intensifying screen at −80° C. for not less than 12 hr. Autoradiograms were subjected to scanning using a laser densitometer (Model GS670, Bio-Rad, Hercules, Calif.) and data were analysed with the Molecular Analyst PC™ software. The intensity of the major ICAM-1 mRNA transcript was normalized with respect to actin mRNA expression used as a control.

P. aeruginosa = assay: Bactericidal activity assay; format: cell-based, Pseudomonas aeruginosa type 1; details: for Bactericidal Activity, % killing: 1.2 × 10^−7 M Peptide, 5 × 105 P. aeruginosa; for Bactericidal Activity, % killing at the effective dose: at the Ed for the same peptide; for Bactericidal Activity, Ed, Effective M dose: dose at which the % in brackets was found
Source text: Bacteria: P. aeruginosa type 1 is a clinical isolate maintained in the laboratory. The isolate remains a smooth strain and was serotyped by the scheme of Homma. The Pseudomonas strain was maintained by monthly transfer on blood agar plates.
The peptides can be assayed for bactericidal activity against a variety of organisms such as Pseudomonas aeruginosa type 1, P. cepacia ATCC 25608, E. coli B, and Staphylococcus aureus 502A by standard methods.
Pseudomonas aeruginosa type 1 is a clinical isolate. The isolate remains a smooth strain and was serotyped by the scheme of Homma (Jpn. J. Exp. Med. 46:329, 1976). A rough strain, E. coli B and S. aureus 502A were obtained from Paul Quie, University of Minnesota (Minneapolis, Minn.). The characteristics of the S. aureus strain have been described by Shinefield et al. (Amer. J. Dis. Chil. 105:646, 1963). Pseudomonas cepacia ATCC 25608 can be purchased from the ATCC. S. aureus and E. coli were maintained on nutrient agar plates and the Pseudomonas strains were maintained on blood agar plates.
Pyrogen-free solutions were used throughout the assay and all methods that follow. Log phase bacteria were prepared from a culture in brain heart infusion broth (Hovde et al. Infect. Immun. 54:142–148, 1986) and bacteria were washed and resuspended in saline with adjustment to an optical density at 650 nm to provide a yield of about 3×10^8 CFU/ml. Bacteria were diluted 1:10 in 0.08M citrate phosphate buffer, pH 5.6 or pH 7.0, for use in the assay. S. aureus rapidly lost viability in the pH 5.6 buffer and was studied only at pH 7.0. Bactericidal activity was determined by dose response over peptide concentrations ranging from about […] to about 4.1×10^−9M. Bactericidal activity was determined by dose response, preferably determining LD50 by linear regression.

[2] = tested on: endothelial cells (FBHEC, HUVEC); assay: Endothelial cell proliferation assay of βpeptides 1–24 (FIG. 7); format: cell-based; details: for effectiveness at decreasing endothelial cell growth: 0.26 micromolar
Experimental: FIG. […] FIG. 7A provides ^3H-Thymidine incorporation data for FBHEC cells and FIG. 7B provides ^3H-Thymidine incorporation data for HUVEC cells.
βpeptides 1–24 were tested in an endothelial cell proliferation assay using ^3H-thymidine incorporation. […]

[3] = 0.02 U (0.2 pg) endotoxin from E. coli 055:B5
[4] = expt 2 (first, r11), 1 μg/ml, 10 ng/ml bFGF, medium 29079 ± 2506
[5] = expt 2 (first, r11), 1 μg/ml, no bFGF, medium 14296 ± 2490
[6] = expt 2 (first, r11), 10 μg/ml, 10 ng/ml bFGF, medium 29079 ± 2506
[7] = expt 2 (first, r11), 10 μg/ml, no bFGF, medium 14296 ± 2490
[8] = expt 2 (first, r11), 100 μg/ml, 10 ng/ml bFGF, medium 29079 ± 2506
[9] = expt 2 (first, r11), 100 μg/ml, no bFGF, medium 14296 ± 2490
[10] = expt 2 (second, r19), 1 μg/ml, 10 ng/ml bFGF, medium 52808 ± 4092
[11] = expt 2 (second, r19), 1 μg/ml, no bFGF, medium 6780 ± 713
[12] = expt 2 (second, r19), 10 μg/ml, 10 ng/ml bFGF, medium 52808 ± 4092
[13] = expt 2 (second, r19), 10 μg/ml, no bFGF, medium 6780 ± 713
[14] = expt 2 (second, r19), 100 μg/ml, 10 ng/ml bFGF, medium 52808 ± 4092
[15] = expt 2 (second, r19), 100 μg/ml, no bFGF, medium 6780 ± 713
[16] = dose at which the % in brackets was found

| Sequence | Endotoxin Neutralization, % neutralization [1, 3] | EC proliferation in vitro (in words) (EC (endothelial cells)) | (3H)-thymidine incorporation (EC (endothelial cells); [4]) [cpm] | (3H)-thymidine incorporation (EC (endothelial cells); [5]) [cpm] | (3H)-thymidine incorporation (EC (endothelial cells); [6]) [cpm] | (3H)-thymidine incorporation (EC (endothelial cells); [7]) [cpm] | (3H)-thymidine incorporation (EC (endothelial cells); [8]) [cpm] | (3H)-thymidine incorporation (EC (endothelial cells); [9]) [cpm] | (3H)-thymidine incorporation (EC (endothelial cells); [10]) [cpm] | (3H)-thymidine incorporation (EC (endothelial cells); [11]) [cpm] | (3H)-thymidine incorporation (EC (endothelial cells); [12]) [cpm] | (3H)-thymidine incorporation (EC (endothelial cells); [13]) [cpm] | (3H)-thymidine incorporation (EC (endothelial cells); [14]) [cpm] | (3H)-thymidine incorporation (EC (endothelial cells); [15]) [cpm] | bFGF mediated downregulation of ICAM-1 (in words) (ICAM-1) | Bactericidal Activity, % killing (P. aeruginosa) [%] | Bactericidal Activity, % killing at the effective dose (P. aeruginosa) | Bactericidal Activity, Ed, Effective M dose (P. aeruginosa) [nM] | Endotoxin Neutralization, % at the effective dose [1] [%] | Endotoxin Neutralization, Ed, Effective M dose [1, 16] [µM] | also measured |
| --- | --- | --- | --- | --- | --- | --- | --- | --- | --- | --- | --- | --- | --- | --- | --- | --- | --- | --- | --- | --- | --- |
| SIQDLNVSMKLFRKQAKWKLIVKLNDGRELSLD [βpep-14] | 38.8 n = 1% | angiostatic | 28695 ± 1062 | 14184 ± 1775 | 29530 ± 1608 | 9886 ± 2114 | 6585 ± 132 | 3774 ± 299 | 48443 ± 2700 | 7214 ± 1668 | 52126 ± 1258 | 6074 ± 899 | 7663 ± 715 | 1062 ± 325 | complete block of bFGF mediated downregulation | 0 | 39.9% | 960 |  |  |  |
| SIQDLNVSMKLFRKQAKWKIIAKLNDGRELSLD [βpep-16] | 100% | angiostatic | 35447 ± 2621 | 15039 ± 2020 | 33663 ± 2572 | 11881 ± 2545 | 7852 ± 875 | 4929 ± 749 | 47727 ± 447 | 7450 ± 737 | 44919 ± 2081 | 6148 ± 1370 | 27071 ± 3277 | 2669 ± 370 | complete block of bFGF mediated downregulation | 0 | 24.3% | 960 | 16.5 | 1.2 |  |
| SIQFLKVSLNLDRKQAKWKIIVKLNDGRELSLD [βpep-24] |  |  |  |  |  |  |  |  |  |  |  |  |  |  |  |  |  |  |  |  | control of endothelial cell proliferation (in words) [2]: very good at controlling cell proliferation; effectiveness at decreasing endothelial cell growth [2]: about 30% |
| ANIKLSVEMKLFKRHLKWKIIVKLNDGRELSLD [βpep-8] | 100% |  |  |  |  |  |  |  |  |  |  |  |  |  |  | 0 | (28.1), n = 3% | 960 | 77.9 | 1.2 | endotoxin neutralizing activity (in words) [1]: best endotoxin neutralizing activity; Endotoxin Neutralizing Activity, % neutralization ([1]; 5.0 × 10^−5 M peptide, 0.02 U (0.2 pg) endotoxin from E. coli 055:B5, Table 3): 100%; Endotoxin neutralization, ED, Effective M dose ([1]; Table 3, dose at which the % in brackets was found): 1.2 µM; control of endothelial cell proliferation (in words) [2]: little cell proliferation activity |
| SIQDLKVSLNLFRKQAKWKIIVKLNDGRELSLD [βpep-23] | 100% |  |  |  |  |  |  |  |  |  |  |  |  |  |  | 0 | 45.8% | 480 | 65.7 | 1.2 | endotoxin neutralizing activity (in words) [1]: best endotoxin neutralizing activity; effectiveness at decreasing endothelial cell growth [2]: about 30% |
